Data from US5012004A, “Ether compounds and their production, and insecticidal and/or acaricidal compositions containing them” (priority 1987, dated 1991).
Like-named read-outs stand apart in the source and are kept apart here.

Key:
Assay type in all cases: in vivo
[1] = tested on: adults of brown rice planthopper (Nilaparvata lugens); experiment: Mortality of adults of brown rice planthopper on dipped rice stems (Test Example 2); settings: 24 h, 200 fold dilution (ca. 500 ppm), one day thereafter, two replications
Source text: (§1) One of Compound Nos. 1 to 38 (10 parts), polyoxyethylene styrylphenyl ether (14 parts), calcium dodecylbenzenesulfonate (6 parts), xylene (35 parts) and dimethylformamide (35 parts) are well mixed to make an emulsifiable concentrate.
Stems of rice plants (about 12 cm in length) were dipped in a 200 fold dilution (ca. 500 ppm) of the emulsifiable concentrate prepared according to Formulation Example 2. After air-drying, the stems were taken into a test tube and 10 adults of brown rice planthopper (Nilaparvata lugens) were released therein.

[2] = tested on: last instar larvae of common mosquito (Culex pipiens pallens); experiment: Emergence inhibition of last instar larvae of common mosquito (Test Example 3); settings: read-out: Rate of emergence inhibition (%)
Experimental: as §1
An emulsifiable concentrate prepared according to Formulation Example 2 was diluted with water to make a concentration of 3.5 ppm. The dilution (100 ml) was charged in a plastic cup (each 180 ml volume), and twenty last instar larvae of common mosquito (Culex pipiens pallens) were released therein. Feeding was continued until emergence of all larvae, and the rate of emergence inhibition was observed.
The rate of emergence inhibition was determined according to the following criteria:
Rate of emergence inhibition […]
b: less than 90% to not less than 80% inhibition c: less than 80% inhibition

[3] = tested on: female carmine spider mites (Tetranychus cinnabarinus); experiment: Plant damage by female carmine spider mites on kidney bean, pot spray plus soil application (Example 4); settings: ca. 500 ppm, 15 ml spray per pot plus 2 ml to soil, eight days thereafter
Experimental: as §1
Adults of female carmine spider mites (Tetranychus cinnabarinus) were permitted to live on leaves (10 mites per leaf) of kidney bean seven days after sowing in the pots, and the mites were kept at 25° C. in a greenhouse. After 6 days, a 200 fold dilution (ca. 500 ppm) of the emulsifiable concentrate prepared according to Formulation Example 2 was sprayed over the pots placed on a turn table at a spray volume of 15 ml per pot, and also 2 ml of the dilution were applied to the soil in each pot. Eight days thereafter, the plant damage by the mites was observed and evaluated according to the following criteria:
______________________________________
-: no material damage to leaves
+: slight damage to leaves

[4] = tested on: eggs of diamondback moth (Plutella xylostella); experiment: Ovicidal test: mortality of eggs of diamondback moth on dipped radish cotyledons (Test Example 1); settings: 72 h, read-out: Mortality (%) of the eggs
Source text: Seven days after sowing, adults of diamondback moth (Plutella xylostella) were released to cotyledons of three radishes for oviposition (about 15 eggs per 1 cotyledon). […] After air-drying, the seedlings were taken into a cup made of polyethylene at the bottom of which were placed a filter paper.

[5] = 200 fold dilution (ca. 500 ppm), cotyledons dipped 30 seconds, three days thereafter, two replications
[6] = 3.5 ppm, twenty last instar larvae, until emergence

SMILES | Plant damage [3] | mortality at 500 µg/mL [4] [%] | mortality at 500 µg/mL [4, 5] [%] | also measured
FCCOc1ccc(OCc2ccccc2)cc1 [A, reference compound] |  |  |  | mortality at 500 µg/mL [1]: 0%; inhibition at 3.5 ppm [2]: 80 to 90%
Cc1cc(Cl)ccc1N=CN(C)C [B, N'-(4-chloro-2-methylphenyl)-N,N-dimethylformamidine, reference compound] | + |  |  | 
FCCOc1ccccc1 [Compound No. 1] |  | 100 |  | 
FCCOc1ccc(F)cc1 [Compound No. 2] |  | 100 |  | 
FCCOc1ccccc1Cl [Compound No. 3] |  | 100 |  | mortality at 500 µg/mL [1]: 100%
FCCOc1ccc(C(F)F)cc1 [Compound No. 10, 1-difluoromethyl-4-(2-fluoroethoxy)benzene] |  |  | 100 | 
FCCOc1ccccc1-c1ccccc1 [Compound No. 20, 1-(2-fluoroethoxy)-2-phenylbenzene] |  |  | 100 | mortality at 500 µg/mL [1]: 100%
FCCOc1ccc(Oc2ccccc2)cc1 [Compound No. 22, 1-(2-fluoroethoxy)-4-phenoxybenzene] | - ~ + |  | 100 | mortality at 500 µg/mL [1]: 100%; inhibition at 3.5 ppm [2]: > 90%
FCCOc1ccc(Oc2cccc(F)c2)cc1 [Compound No. 23, 1-(2-fluoroethoxy)-4-(3-fluorophenoxy)benzene] |  |  | 100 | mortality at 500 µg/mL [1]: 100%; inhibition at 3.5 ppm [2]: > 90%
FCCOc1ccc2oc3ccccc3c2c1 [Compound No. 35, 2-(2-fluoroethoxy)-dibenzofuran] | - |  | 100 | inhibition at 3.5 ppm [2]: > 90%
FCCOc1cccc(Cl)c1 [compound 4] |  | 100 |  | 
COc1cccc(OCCF)c1 [compound 5] |  | 100 |  | 
Cc1ccccc1OCCF [compound 6] |  | 100 |  | 
Cc1cccc(OCCF)c1 [compound 7] |  | 100 |  | 
Cc1ccc(OCCF)cc1 [compound 8] |  | 100 |  | 
Cc1cc(Cl)ccc1OCCF [compound 9] |  | 100 |  | inhibition at 3.5 ppm [2]: > 90%
FCCOc1ccc(OCCF)cc1 [compound 11] | - ~ + | 100 |  | mortality at 500 µg/mL [1]: 100%; inhibition at 3.5 ppm [2]: > 90%
FCCOc1ccc(-c2ccc(OCCF)cc2)cc1 [compound 12] |  | 100 |  | 
FCCOc1ccc2c(c1)OCO2 [compound 13] |  |  | 100 | 
FCCOc1ccccc1CBr [compound 14] |  | 100 |  | 

SMILES | Plant damage [3] | mortality at 500 µg/mL [4] [%] | mortality at 500 µg/mL [4, 5] [%] | also measured
FCCOc1cccc(CBr)c1 [compound 15] |  | 100 |  | 
FCCOc1ccc(CBr)cc1 [compound 16] |  | 100 |  | 
FCCOc1ccccc1COc1ccc(Oc2ccccc2)cc1 [compound 17] | - |  | 100 | 
FCCOc1cccc(COc2ccc(Oc3ccccc3)cc2)c1 [compound 18] | - ~ + |  | 100 | inhibition at 3.5 ppm [2, 6]: > 90%
FCCOc1ccc(COc2ccc(Oc3ccccc3)cc2)cc1 [compound 19] |  |  | 100 | inhibition at 3.5 ppm [2, 6]: > 90%
FCCOc1cccc(-c2ccccc2)c1 [compound 21] | - ~ + |  | 100 | inhibition at 3.5 ppm [2]: > 90%
FCCOc1ccc(Oc2cc(F)cc(F)c2)cc1 [compound 24] |  |  | 100 | inhibition at 3.5 ppm [2]: > 90%
FCCCCOc1ccc(Oc2ccccc2)cc1 [compound 25] |  |  | 100 | inhibition at 3.5 ppm [2, 6]: > 90%
CC(CF)Oc1ccc(Oc2ccccc2)cc1 (stereo not shown) [compound 26] |  |  | 100 | inhibition at 3.5 ppm [2, 6]: > 90%
CC(F)COc1ccc(Oc2ccccc2)cc1 (stereo not shown) [compound 27] |  |  | 100 | inhibition at 3.5 ppm [2, 6]: > 90%
CCC(F)COc1ccc(Oc2ccccc2)cc1 (stereo not shown) [compound 28] |  |  | 100 | inhibition at 3.5 ppm [2, 6]: > 90%
FCCOc1cccc(Oc2ccccc2)c1 [compound 29] |  |  | 100 | mortality at 500 µg/mL [1]: 90%
FCCOc1ccc(Cc2ccccc2)cc1 [compound 30] | - ~ + |  | 100 | mortality at 500 µg/mL [1]: 100%
CC(C)(c1ccccc1)c1ccc(OCCF)cc1 [compound 31] |  |  | 100 | 
CC(C)(c1ccc(OCCF)cc1)c1ccc(OCCF)cc1 [compound 32] |  |  | 100 | inhibition at 3.5 ppm [2, 6]: > 90%
FCCOc1ccc(Sc2ccccc2)cc1 [compound 33] | - |  | 100 | mortality at 500 µg/mL [1]: 100%; inhibition at 3.5 ppm [2]: > 90%
FCCOc1ccc(Sc2ccc(OCCF)cc2)cc1 [compound 34] |  |  | 100 | inhibition at 3.5 ppm [2]: > 90%
O=C(c1ccccc1)c1ccc(OCCF)cc1 [compound 36] | - |  | 100 | 
O=C1c2ccccc2-c2ccc(OCCF)cc21 [compound 37] | - ~ + |  | 100 | 
FCCOc1ccc(OC2C=CCCC2)cc1 (stereo not shown) [compound 38] | - |  | 100 | 
